Data as given in US20240190856A1, “MELANOCORTIN-4 RECEPTOR AGONIST” (LG CHEM, LTD., priority 2021, published 2024).
Where a name gives a salt, the structure may show the parent alone.

Assays:
[1] = molecular target: T1, MC4R (melanocortin-4 receptor) (Homo sapiens, UniProt P32245); test: Luciferase assay (CRE-LUC, HEK MC4R-Luc cells); type: cell-based; conditions: 5 h incubation, concentration inducing 50% of each agonist's own maximum luminescence
T1 construct: expressed in transfected cells
Procedure: In order to measure the agonist ability against MC4R (melanocortin-4 receptor), a cell line that permanently expresses the luciferase gene (CRE-LUC) under the control of MC4R and CRE (cAMP response element) was established. After a mammalian cell expression vector (pCDNA3 (Neo)) (Invitrogen) containing the MC4R gene was prepared, human embryonic kidney (HEK) cell lines were transformed by using Lipofectamine 2000 (Invitrogen) together with a vector (pCRE-Luc)(Stratagen) expressing a luciferase gene (CRE-LUC) under the control of a cAMP response element (CRE). Transformed cell lines (HEK MC4R-Luc) were incubated in a 37° C. incubator in the presence of 5% CO2 for 24 hours by using Dulbecco's Modified Eagles Medium (DMEM) containing 10% Heat-Inactivated Fetal Bovine Serum (GIBCO/BRL). The cell lines were incubated for four days in the presence of Dulbecco's Modified Eagles Medium (DMEM) containing 10 ml of selection medium (10% Heat-Inactivated Fetal Bovine Serum (GIBCO/BRL), 100 unit/ml of penicillin (GIBCO/BRL), 100 unit/ml of streptomycin (GIBCO/BRL), 800 μg/ml of Geneticin (G418) (GIBCO/BRL). The process of removing cells killed by the selection medium by replacing the medium with 10 ml of a new selection medium was repeated three times, once every 4 days. Individual colonies formed by the finally selected and propagated clones were transferred under a microscope to a 24-well cell culture plate containing 1 ml of selection medium per well and incubated for 4 days. Forskolin (SIGMA) was treated to a final concentration of 10 μM, and then incubated for five hours in a 37° C. incubator in the presence of 5% CO2. Each well was treated with 50 μl of a Bright-Glo luciferase reagent (Promega) and left at room temperature for 15 minutes, and then the luminescence of each well was measured by using a luminometer (Victor).
HEK MC4R-Luc cells were added to each well of a 96-well luminometer cell culture plate (Costar) to a size of 2.5×10^4 cells in 100 μl of a culture medium and then incubated in a 37° C. incubator in the presence of 6% CO2 for 18 hours. […] Each well was treated with 50 μl of a Bright-Glo luciferase reagent (Promega) and left at room temperature for five minutes, and then the luminescence of each well was measured by using a luminometer (Victor). […] EC0.5 MSH is expressed as a concentration that induces 50% of the maximum amount of luminescence that can be induced by NDP-α-MSH, and EC50 is expressed as a concentration that induces 50% of the maximum amount of luminescence that can be induced by each agonist. The measurements were measured using statistical software (Prizm).

MC4R = MC4R (Homo sapiens, UniProt P32245); test: Binding affinity (125I-NDP-α-MSH displacement, membranes of HEK-293 cells expressing MC4R); set-up: expressed in transfected cells; host or cells: HEK-293 cells, membrane preparation; conditions: 0.02 nM 125I-NDP-α-MSH, 37° C. for two hours, pH 7.0
Sequence of MC4R (P32245 whole entry): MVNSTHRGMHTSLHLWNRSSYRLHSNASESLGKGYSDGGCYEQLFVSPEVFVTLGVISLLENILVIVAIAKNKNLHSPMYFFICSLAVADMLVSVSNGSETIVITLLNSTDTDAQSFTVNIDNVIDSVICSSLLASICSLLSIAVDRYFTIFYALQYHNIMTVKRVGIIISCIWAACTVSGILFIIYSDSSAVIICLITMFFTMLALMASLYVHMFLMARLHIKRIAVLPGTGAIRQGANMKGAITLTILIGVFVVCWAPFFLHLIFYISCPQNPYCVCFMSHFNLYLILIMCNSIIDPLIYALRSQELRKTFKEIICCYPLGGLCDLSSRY
Description: Five subtypes of melanocortin receptor (MCR) in vivo are known, and it is known that MC4R, which is Subtype 4, is involved in energy metabolism and weight control. Since other MCR subtypes are involved in the regulation of various functions in vivo such as skin pigmentation, energy homeostasis, and exocrine functions, securing selectivity for MC4R of MC4R agonist compounds is very important in preventing possible side effects in the future. Therefore, the receptor binding abilities of MC4R agonists for each MCR subtype were measured.
After the CHO-K 1 cell line expressing human recombinant MC1R and the HEK-293 cell lines expressing MC3R, MC4R and MC5R were established, membranes were collected from each cell line. In a 96-well cell culture plate, 3 μg MC1R membrane and 0.04 nM ^125I-NDP-α-MSH per well were reacted at 37° C. for two hours. 3 μg MC3R and MC5R membrane and 0.035 nM ^125I-NDP-α-MSH were reacted at 37° C. for one hour, and […] MC4R membrane and 0.02 nM ^125I-NDP-α-MSH were reacted at 37° C. for two hours. At this time, 25 mM HEPES-KOH adsorption buffer (pH 7.0) containing MCR agonist diluted at each step concentration was added to each well and reacted. The reacted solution was transferred to a filter and washed with an adsorption buffer, and then radioactivity was measured. The value excluding the non-specific binding amount in the presence of 1 μM (MC1R) and 3 μM (MC3R, MC4R, MC5R) of NDP-α-MSH from each total binding amount was used as specific binding amounts of ^125I-NDP-α-MSH. The degree to which the ^125I-NDP-a-MSH specific binding was inhibited by the agonist diluted at each step concentration was measured. IC50 was expressed as the concentration of each agonist that inhibited specific binding of 50% of ^125I-NDP-α-MSH.
Tables 4-1 and 4-2 show the results of measuring the binding of melanocortin receptors of the compounds obtained by the above experiment in Ki (nM) units.

T1 sequence (P32245 whole entry, species assumed): as the sequence (P32245 whole entry) above

EC50 [1] [nM]	Ki (MC4R; Table 4-1) [nM]	Ki (MC4R; Table 4-2) [nM]	SMILES
3.82	–	–	CC(C)C(=O)N(C1CCC(C)(C)CC1)[C@H]1C[C@@H](C(=O)N2CCOCC2)N(C(=O)[C@@H]2CN(C(C)(C)C)C[C@H]2c2ccc(Cl)cc2)C1 [Example 5, N-((3S,5S)-1-((3S,4R)-1-(tert-butyl)-4-(4-chlorophenyl)pyrrolidine-3-carbonyl)-5-(morpholine-4-carbonyl)pyrrolidin-3-yl)-N-(4,4-dimethylcyclohexyl)isobutyramide hydrochloride]
14.7	1450	1780	CC(=O)N(C1CCC(C)(C)CC1)[C@H]1C[C@@H](C(=O)N2CCOCC2)N(C(=O)[C@@H]2CN(C(C)(C)C)C[C@H]2c2ccc(F)cc2F)C1 [Comparative Example 1 (A95), N-((3S,5S)-1-((3S,4R)-1-(tert-butyl)-4-(2,4-difluorophenyl)pyrrolidine-3-carbonyl)-5-(morpholine-4-carbonyl)pyrrolidin-3-yl)-N-(4,4-dimethylcyclohexyl)acetamide hydrochloride, reference compound]
5.61	410	530	CC(=O)N(C1CCC(C)(C)CC1)[C@H]1C[C@@H](C(=O)N2CCOCC2)N(C(=O)[C@@H]2CN(C(C)(C)C)C[C@H]2c2ccc(Cl)cc2)C1 [Comparative Example 2 (A96), N-((3S,5S)-1-((3S,4R)-1-(tert-butyl)-4-(4-chlorophenyl)pyrrolidine-3-carbonyl)-5-(morpholine-4-carbonyl)pyrrolidin-3-yl)-N-(4,4-dimethylcyclohexyl)acetamide hydrochloride, reference compound]
